Laboratory results: publication PMC7870626, “Neurotoxicity and underlying cellular changes of 21 mitochondrial respiratory chain inhibitors” (Archives of Toxicology, 2021)
Entries after “also recorded” stand apart in the source; their conditions may differ. Where two headings read alike, the source gives them in different places.

Legend:
SH-SY5Y cells = type: cell-based, human; settings: up to 10 µM; for Neurite degeneration: 24 h exposure, without affecting viability; for Neurite degeneration (in words) / Reduction in viability: 120 h exposure
Procedure: The cells are able to form neurites and display several dopaminergic characteristics. […] Differentiation was initiated 24 h later (on day 0, d0) by exchange to 100 µl/well differentiation medium (DMEM:F12, supplemented with 1 µM all-trans retinoic acid (RA), 1 × N2 supplement, 2 mM L-glutamine, 100 µg/ml streptomycin, and 100 U/ml penicillin). All media and supplements were obtained from Gibco (ThermoFisher) except from RA (Sigma).
On d3, 100 µl of fresh differentiation medium were added to the wells. For the 120 h exposure, this medium contained twice the final treatment concentration. On d6, 100 µl from each well were removed, and the procedure was repeated and the cells were analyzed on d8. For the 24 h exposure, cells received an addition of 100 µl pure differentiation medium on d3 and were treated with compounds as described above on d6 for 24 h before analysis. […] The cells were incubated with the stain mixture for 20 min at 37 °C, 5% CO2. After incubation, 130 µL of differentiation medium were added to all the wells to stop further staining of the cells. Images were obtained using ImageXpress® Micro (Molecular Devices). […] The mean neurite length was calculated using the Neurite Outgrowth plug-in in the MetaXpress® Software. Outgrowths were defined as cytoplasmic prolongations with a maximum width of 2 µm (3 pixels). The minimum outgrowth size needed to be logged as significant was defined as 15 µm (23 pixels).

LUHMES cells [1] = assay: Mitochondrial respiration of intact LUHMES cells (Seahorse OCR); type: cell-based, human; settings: d3 LUHMES, acute treatment, highest non-cytotoxic concentration (cII inhibitors 100 µM)
Procedure: Respiration of intact LUHMES cells was performed as described earlier (Delp et al. [2018a], [2019]). Briefly, 48 h differentiated cells were re-seeded into Agilent Seahorse XFe24-well plates in DM without cAMP and GDNF at a density of 100,000 cells/cm^2 and cultured for 24 h before the assay was initiated. Inhibition of respiration was calculated as the difference between baseline measurements (i.e., after equilibration, last measurement before treatment) and the first measurement after treatment with the test compound.

LUHMES cells [2] = type: cell-based, human
Procedure: Cells were cultured and treated as described above for the NeuriTox assay. On d3, after 24 h treatment, culture medium was replaced by 33 µl/well 1 × Biospyder lysis buffer. After 15 min at room temperature, plates were sealed and frozen at -80 °C to complete lysis. Samples were analyzed at Bioclavis (Glasgow) using the TempO-Seq technique and the EU-ToxRisk v2.0 gene probe panel covering ca. 3000 genes (Yeakley et al. [2017]). All genes are listed in the supplementary excel file (containing also all gene regulations). Briefly, a 50 bp fragment of the target gene was amplified. The amplification step also introduced sample-specific barcodes. This allowed pooling of all samples and standard next-generation sequencing of the ensemble. Afterward, adapters were used to allocate the sequenced fragments to the correct samples. Finally, the alignment of all sequenced fragments (FASTQ files) for each sample to the collection of reference 50 bp oligonucleotides was performed for the quantification of reads per gene, also known as the read count values. In a pre-filtering step, samples with a total count < 0.2 million and genes with an average count < 1.5 were removed.
To correct for both read depth and RNA composition, the DESeq2′s median of ratios normalization was applied. The analysis of differentially expressed genes (DEG) of each treatment against the control group was done by the Wald test implemented in DESeq2/R (Love et al. [2014]), including an FDR correction for p-adjusted ≤ 0.05. […] A curve was fit through these concentration–response data to obtain EC10DEG. For comparability, all DEG data were normalized to a positive control. […] The EC10DEG was calculated using an established online open access BMC calculator (BMCeasy) (Krebs et al. [2020]).

cII = target: T1, cII (Homo sapiens, UniProt O14521+P21912+Q99643); assay: Respiratory chain complex activity in permeabilized LUHMES cells: cII; type: cell-based; settings: mepronil at 100 µM
T1 construct: endogenous in cells; host or cells: LUHMES cells, digitonin-permeabilized
T1 sequence (P21912 29-280): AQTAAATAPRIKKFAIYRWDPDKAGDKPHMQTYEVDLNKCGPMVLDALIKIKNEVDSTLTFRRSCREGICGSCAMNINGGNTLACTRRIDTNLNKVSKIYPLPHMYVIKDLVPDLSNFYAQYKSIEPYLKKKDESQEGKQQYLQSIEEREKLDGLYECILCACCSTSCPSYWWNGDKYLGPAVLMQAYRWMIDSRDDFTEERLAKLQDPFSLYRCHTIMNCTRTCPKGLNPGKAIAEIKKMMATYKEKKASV
T1 sequence (Q99643 30-169): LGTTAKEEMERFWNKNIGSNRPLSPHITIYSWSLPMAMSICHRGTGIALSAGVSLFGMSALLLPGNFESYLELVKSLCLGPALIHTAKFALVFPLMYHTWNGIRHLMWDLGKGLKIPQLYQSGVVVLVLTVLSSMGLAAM
T1 sequence (O14521 57-159): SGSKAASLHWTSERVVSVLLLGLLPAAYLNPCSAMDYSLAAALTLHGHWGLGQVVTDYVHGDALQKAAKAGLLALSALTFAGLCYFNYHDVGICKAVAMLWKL
T1 sequence (P31040 43-664 partner): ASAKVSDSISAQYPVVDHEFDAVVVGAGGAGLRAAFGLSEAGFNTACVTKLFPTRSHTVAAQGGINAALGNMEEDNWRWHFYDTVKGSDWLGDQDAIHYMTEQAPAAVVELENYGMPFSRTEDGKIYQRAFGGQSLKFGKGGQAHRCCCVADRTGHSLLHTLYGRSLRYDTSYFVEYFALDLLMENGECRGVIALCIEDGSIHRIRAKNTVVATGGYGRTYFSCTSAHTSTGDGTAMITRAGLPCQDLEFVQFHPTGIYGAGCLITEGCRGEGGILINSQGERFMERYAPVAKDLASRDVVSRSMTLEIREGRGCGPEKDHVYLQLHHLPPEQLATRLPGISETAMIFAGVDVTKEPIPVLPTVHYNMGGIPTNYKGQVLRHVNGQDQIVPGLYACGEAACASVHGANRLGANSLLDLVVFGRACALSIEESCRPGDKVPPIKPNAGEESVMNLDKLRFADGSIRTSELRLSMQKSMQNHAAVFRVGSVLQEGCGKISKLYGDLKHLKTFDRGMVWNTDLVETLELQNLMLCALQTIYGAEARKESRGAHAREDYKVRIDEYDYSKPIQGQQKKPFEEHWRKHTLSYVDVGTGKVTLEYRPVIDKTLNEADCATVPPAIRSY
Procedure: (§1) To investigate individual respiratory chain complexes, a method developed earlier and described extensively was used (Delp et al. [2019]). In brief, LUHMES cells were seeded at a density of 205,000 cells/cm^2 in PM into Agilent Seahorse XFe24-well plates. […] To reduce data variability, internal normalization of the OCR of each well was done relative to its value after equilibration.

LUHMES cells [3] = assay: LUHMES 120 h exposure scenario, neurite effects; type: cell-based, human
Procedure: The NeuriTox test was performed as previously described (Delp et al. [2018b]; Krug et al. [2013a]; Stiegler et al. [2011]). Briefly, cells differentiated for 48 h were re-seeded into 96-well plates at a density of 100,000 cells/cm^2 in DM without cAMP and GDNF, and treated 1 h after seeding for 24 h. Subsequently, multiple endpoints were determined, e.g., neurite outgrowth (i.e., NeuriTox test), resazurin reduction, intracellular ATP content, gene expression levels from TempO-Seq analysis, and proteasomal activity. For the 120 h exposure scenario, LUHMES cells were differentiated for another 3 days after reseeding before they were treated on day 5 (d5) and d7 by a half medium exchange. Endpoints were determined on d10 of differentiation.
Image acquisition and analysis was performed as described previously (Krug et al. [2013a]; Schildknecht et al. [2013]; Stiegler et al. [2011]). In brief, cells were live-stained with 1 µg/ml Hoechst H-33342 and 1 µM calcein-AM and image acquisition was done by an automated high content imager (Cellomics, Waltham, MA, USA). Cell viability was determined as ratio of live cells (cell bodies being Calcein- and Hoechst-positive) relative to the total amount of cells (Hoechst-positive cell bodies). Neurite area was calculated by subtracting the somatic area (Hoechst-positive area plus surrounding) from the calcein-positive area.

cIII = target: T2, cIII (Homo sapiens, UniProt P00156); assay: Respiratory chain complex activity in permeabilized LUHMES cells: cIII; type: cell-based
T2 construct: endogenous in cells; host or cells: LUHMES cells, digitonin-permeabilized
Procedure: as §1

[4] = gene AARS, 0.08 µM, 24 h, vs 0.1% DMSO
[5] = gene AASDHPPT, 0.08 µM, 24 h, vs 0.1% DMSO
[6] = gene AATF, 0.08 µM, 24 h, vs 0.1% DMSO
[7] = gene ABCA1, 0.08 µM, 24 h, vs 0.1% DMSO
[8] = gene ABCA6, 0.08 µM, 24 h, vs 0.1% DMSO

CCCCCC[C@H]1C(=O)O[C@H](C)[C@H](NC(=O)c2cccc(NC=O)c2O)C(=O)O[C@@H](C)[C@@H]1OC(=O)CC(C)C [Antimycin A]
Neurite degeneration (SH-SY5Y cells): > 25%
Neurite degeneration (in words) (SH-SY5Y cells): degeneration of neurites
Reduction in viability (SH-SY5Y cells): > 25%
Inhibition of total mitochondrial respiration of intact cells (LUHMES cells [1]): strong inhibitory effects
log2FoldChange AARS (LUHMES cells [2]; [4]): -0.20 log2
log2FoldChange AASDHPPT (LUHMES cells [2]; [5]): -0.32 log2
log2FoldChange AATF (LUHMES cells [2]; [6]): 0.18 log2
log2FoldChange ABCA1 (LUHMES cells [2]; [7]): -0.64 log2
log2FoldChange ABCA6 (LUHMES cells [2]; [8]): 1.98 log2

CC1=C(C(=O)Nc2ccccc2)SCCO1 [Carboxin]
Inhibition of cII activity (in words) (cII): strong inhibition of cII
log2FoldChange AARS (LUHMES cells [2]; gene AARS, 0.20 µM, 24 h, vs 0.1% DMSO): -0.12 log2
log2FoldChange AASDHPPT (LUHMES cells [2]; gene AASDHPPT, 0.20 µM, 24 h, vs 0.1% DMSO): 0.26 log2
log2FoldChange AATF (LUHMES cells [2]; gene AATF, 0.20 µM, 24 h, vs 0.1% DMSO): 0.0462 log2
log2FoldChange ABCA1 (LUHMES cells [2]; gene ABCA1, 0.20 µM, 24 h, vs 0.1% DMSO): -0.37 log2
log2FoldChange ABCA6 (LUHMES cells [2]; gene ABCA6, 0.20 µM, 24 h, vs 0.1% DMSO): 0.78 log2

Cc1ccc(-c2c(Cl)nc(C#N)n2S(=O)(=O)N(C)C)cc1 [Cyazofamid]
Neurite degeneration (SH-SY5Y cells): > 25%
Neurite degeneration (in words) (SH-SY5Y cells): degeneration of neurites; also recorded: increased neurite degeneration
Reduction in viability (SH-SY5Y cells): > 25%
Increase in sensitivity of neurite EC25, 120 h versus 24 h exposure (LUHMES cells [3]): five-to-eightfold
Inhibition of total mitochondrial respiration of intact cells (LUHMES cells [1]): inactive
Inhibition of cIII activity (in words) (cIII; cIII electron donor): not active at all
Uncoupling action (cIII; neuronal mitochondria, 50 µM): uncoupling action
log2FoldChange AARS (LUHMES cells [2]; gene AARS, 0.00781 µM, 24 h, vs 0.1% DMSO): -1.30 log2
log2FoldChange AASDHPPT (LUHMES cells [2]; gene AASDHPPT, 0.00781 µM, 24 h, vs 0.1% DMSO): 1.09 log2
log2FoldChange AATF (LUHMES cells [2]; gene AATF, 0.00781 µM, 24 h, vs 0.1% DMSO): -0.24 log2
log2FoldChange ABCA1 (LUHMES cells [2]; gene ABCA1, 0.00781 µM, 24 h, vs 0.1% DMSO): -1.98 log2
log2FoldChange ABCA6 (LUHMES cells [2]; gene ABCA6, 0.00781 µM, 24 h, vs 0.1% DMSO): 0.44 log2

COc1cc2c(cc1OC)[C@@H]1C(=O)c3ccc4c(c3O[C@@H]1CO2)C=CC(C)(C)O4 [Deguelin]
Neurite degeneration (SH-SY5Y cells): no effects
Neurite degeneration (in words) (SH-SY5Y cells): degeneration of neurites; also recorded: increased neurite degeneration
Reduction in viability (SH-SY5Y cells): > 25%
Increase in sensitivity of neurite EC25, 120 h versus 24 h exposure (LUHMES cells [3]): five-to-eightfold
Number of DEGs triggered (LUHMES cells [2]; 13 µM, 24 h, LUHMES): 325
Regulation of the 13 deguelin-sensitive genes (in words) (LUHMES cells [2]; LUHMES 24 h): 11 out of 13 of these genes were not significantly regulated up to 0.8 µM deguelin, but clearly upregulated at 3.25 µM
log2FoldChange AARS (LUHMES cells [2]; gene AARS, 0.05 µM, 24 h, vs 0.1% DMSO): -0.69 log2
log2FoldChange AASDHPPT (LUHMES cells [2]; gene AASDHPPT, 0.05 µM, 24 h, vs 0.1% DMSO): 0.63 log2
log2FoldChange AATF (LUHMES cells [2]; gene AATF, 0.05 µM, 24 h, vs 0.1% DMSO): -0.08 log2
log2FoldChange ABCA1 (LUHMES cells [2]; gene ABCA1, 0.05 µM, 24 h, vs 0.1% DMSO): -2.12 log2
log2FoldChange ABCA6 (LUHMES cells [2]; gene ABCA6, 0.05 µM, 24 h, vs 0.1% DMSO): 0.47 log2

COC(=O)N(OC)c1ccccc1COc1ccn(-c2ccc(Cl)cc2)n1 [Pyraclostrobin]
Increase in sensitivity of neurite EC25, 120 h versus 24 h exposure (LUHMES cells [3]): five-to-eightfold
log2FoldChange AARS (LUHMES cells [2]; gene AARS, 0.0856 µM, 24 h, vs 0.1% DMSO): -0.28 log2
log2FoldChange AASDHPPT (LUHMES cells [2]; gene AASDHPPT, 0.0856 µM, 24 h, vs 0.1% DMSO): 0.80 log2
log2FoldChange AATF (LUHMES cells [2]; gene AATF, 0.0856 µM, 24 h, vs 0.1% DMSO): -0.24 log2
log2FoldChange ABCA1 (LUHMES cells [2]; gene ABCA1, 0.0856 µM, 24 h, vs 0.1% DMSO): -1.33 log2
log2FoldChange ABCA6 (LUHMES cells [2]; gene ABCA6, 0.0856 µM, 24 h, vs 0.1% DMSO): 0.89 log2

CCOCCc1ccc(OCCN=c2[nH]cnc(CC)c2Cl)c(C)c1C [Pyrimidifen]
Increase in sensitivity of neurite EC25, 120 h versus 24 h exposure (LUHMES cells [3]): 9.8 fold
log2FoldChange AARS (LUHMES cells [2]; [4]): -0.45 log2
log2FoldChange AASDHPPT (LUHMES cells [2]; [5]): 0.72 log2
log2FoldChange AATF (LUHMES cells [2]; [6]): -0.0132 log2
log2FoldChange ABCA1 (LUHMES cells [2]; [7]): -1.62 log2
log2FoldChange ABCA6 (LUHMES cells [2]; [8]): 0.65 log2

C=C(C)[C@H]1Cc2c(ccc3c2O[C@@H]2COc4cc(OC)c(OC)cc4[C@@H]2C3=O)O1 [Rotenone]
Neurite degeneration (SH-SY5Y cells): > 25%
Neurite degeneration (in words) (SH-SY5Y cells): degeneration of neurites
Reduction in viability (SH-SY5Y cells): > 25%
log2FoldChange AARS (LUHMES cells [2]): -0.41 log2
log2FoldChange AASDHPPT (LUHMES cells [2]): 0.79 log2
log2FoldChange AATF (LUHMES cells [2]): -0.42 log2
log2FoldChange ABCA1 (LUHMES cells [2]): -0.98 log2
log2FoldChange ABCA6 (LUHMES cells [2]): -0.24 log2

Cc1nc(C(F)(F)F)c(C(=O)Nc2c(Br)cc(OC(F)(F)F)cc2Br)s1 [Thifluzamide]
Increase in sensitivity of neurite EC25, 120 h versus 24 h exposure (LUHMES cells [3]): five-to-eightfold
Inhibition of cII activity (in words) (cII): strong inhibition of cII
log2FoldChange AARS (LUHMES cells [2]; gene AARS, 0.15 µM, 24 h, vs 0.1% DMSO): -0.98 log2
log2FoldChange AASDHPPT (LUHMES cells [2]; gene AASDHPPT, 0.15 µM, 24 h, vs 0.1% DMSO): 0.89 log2
log2FoldChange AATF (LUHMES cells [2]; gene AATF, 0.15 µM, 24 h, vs 0.1% DMSO): -0.41 log2
log2FoldChange ABCA1 (LUHMES cells [2]; gene ABCA1, 0.15 µM, 24 h, vs 0.1% DMSO): -0.76 log2
log2FoldChange ABCA6 (LUHMES cells [2]; gene ABCA6, 0.15 µM, 24 h, vs 0.1% DMSO): 1.03 log2
